Assay results taken from US20050113443A1, “Modulation of airway inflammation in patients with cystic fibrosis and related diseases” (priority 2003, published 2005).

Key:
[1] = test system: primary human bronchial epithelial cells; experiment: P. aeruginosa-induced IL-8 secretion by primary human bronchial epithelial cells (ELISA); type: cell-based; settings: cells treated 2 h with analogue (nanomolar concentrations), stimulated 1 h with 3×10^7 cfu P. aeruginosa PA01, supernatants after 4 more hours, vs vehicle (0.01% ethanol), FIG. 2, P<0.002
Method: We further examined whether LX analogues were able to inhibit P. aeruginosa-induced IL 8 production from primary human bronchial epithelial cells. Primary bronchial epithelial cells from non-smokers obtained from Clonetics/Cambrex were grown until subconfluent, treated for 2 h with LXA4 analogue or vehicle control (0.01% ethanol), stimulated for 1 h with 3×10^7 cfu of P. aeruginosa strain PA01, and subsequently washed. Cell-free supernatants were harvested after 4 more hours of incubation, and analyzed by ELISA for IL-8 secretion. For this purpose we used the metabolically stable analog 15-epi-16-(p-fluorophenoxy) LXA4 methyl ester, prepared according to Example 2. […] Primary human bronchial epithelial cells were pretreated with an LXA4 analogue (15-epi-16-[p-fluorophenoxy LXA4] methyl ester) or vehicle control and subsequently stimulated with P. aeruginosa strain PA01. IL-8 was measured in cell-free supernatants. Mean IL-8 production was 1620±116 pg/ml in vehicle control cultures.

[2] = test system: C57BL/6 mice challenged intratracheally with mucoid P. aeruginosa (strain M57-15); experiment: Mouse model of chronic airway inflammation and infection of cystic fibrosis (mucoid P. aeruginosa entrapped in agarose beads); type: in vivo; settings: vs vehicle controls
Text: Chronic infections with mucoid P. aeruginosa tend to persist in patients with CF. In turn, chronic airway infection with mucoid P. aeruginosa is a major cause of morbidity and mortality among CF patients. In order to achieve chronic airway infections with P. aeruginosa in murine models, it is necessary to enmesh the bacteria with an immobilizing agent such as agar (Pediatr Pulmonol 30:413.; Lab Animals 36:291). This also provides an experimental mimic of the growth of P. aeruginosa as a biofilm, which appears to be its predominant state in the CF airway (Pediatr Pulmonol 30:413, 2000; Pediatr Res 22:698, 1987; Trends Microbiol 9:50, 2001). C57/B16 mice are used, as the inflammatory response to P. aeruginosa infection of this moderately susceptible strain is a fair mimic of that seen in CF patients (Pediatr Pulmonol 30:413). Indeed, in C57/B16 mice, agar bead delivery of P. aeruginosa leads to histopathological changes, including bronchiectasis, similar to those found in patients with CF (Pediatr Pulmonol 30:413, 2000). This chronic model allows for the characterization of the effects of LX analogues on chronic, ongoing airway infection and inflammation using a model that is highly relevant to, and a reasonable mimic of, the CF airway.
Modifications were made in a previously described model (van Heeckeren, A. M. etal Lab Anim 36, 291, 2002). 6-8 week old female C57BL/6 mice were immunized in the dermis of the ear with heat-killed P. aeruginosa (mucoid strain M57-15) in incomplete Freund's adjuvant 10 days prior to P. aeruginosalagar bead challenge. Mice were challenged intratracheally (non-traumatically as previously described, Wills-Karp, M. et al. Science 282, 2258, 1998) with 3×10^4 P. aeruginosa (mucoid strain M57-15) entrapped in […] agarose beads. Beginning 1 day prior to such challenge, mice were treated with an LXA4 analogue (15-epi-16-[p-fluorophenoxy LXA4] methyl ester) by oral administration, through placing 10 μg/ml of the analogue in the drinking water (Gewirtz, A. T. et al. J Immunol 168, 5260, 2002), supplemented with a single daily intravenous dose of 1 μg by tail vein. Controls received trace volumes (identical to that administered to lipoxin analogue-treated mice) of ethanol in drinking water and intravenously. Mice were weighed daily. Five days after P. aeruginosa/agar bead challenge, mice were sacrificed, BAL was performed, and lungs were harvested for measurement of lung Pseudomonas burden and myeloperoxidase by standard techniques (van Heeckeren, A. M. et al Lab Anim 36, 291, 2002; Wills-Karp, M. et al. Science 282, 2258, 1998; Andrews, P. C. et al. Anal Biochem 127, 346, 1982). Animal care was provided in accordance with National Institutes of Health guidelines. This was done in order to model an additional immunological feature of individuals with cystic fibrosis and P. aeruginosa colonization/infection: potent adaptive immune responses, marked by anti-pseudomonal antibodies and T cells reactive with pseudomonal proteins.
C57/B16 mice were challenged intratracheally (non-traumatically as previously described [Science 282:2258, 1998; Nature Immunol 1:221,2000]) with 3×10^4 P. aeruginosa (mucoid strain M57-15) entrapped in agar beads (70-200 uM). […]

## COC(=O)CCC[C@H](O)[C@H](O)/C=C/C=C/C=C\C=C\[C@H](O)COc1ccc(F)cc1 [(5S, 6R, 15S)-trihydroxy-16-(4-fluorophenoxy)-hexadeca-(7E, 9E, 11Z,13E)-tetraenoic acid methyl ester]
[1]
  P. aeruginosa-mediated IL-8 secretion: inhibits
[1]; listed as LXA4 analogue
  P. aeruginosa-mediated IL-8 secretion: significantly inhibits
[2]; 10 μg/ml in drinking water plus 1 μg i.v. daily from 1 day before challenge, weighed daily, FIG. 3
  weight loss: less weight loss
[2]; 10 μg/ml in drinking water plus 1 μg i.v. daily, weighed daily, FIG. 3
  recovery of lost weight: earlier and more complete recovery of lost weight
[2]; BAL five days after challenge, FIG. 4A
  bronchoalveolar lavage total cell counts: significant suppression of total cell counts
[2]; BAL five days after challenge, FIG. 4B
  airway neutrophilia (BAL neutrophils): significant inhibition of airway neutrophilia
[2]; BAL five days after challenge, FIG. 4C
  airway lymphocyte counts: significant increase in airway lymphocyte counts
[2]; BAL five days after challenge, FIG. 4D
  percentage of airway macrophages: increase in the percentage of airway macrophages
[2]; BAL five days after challenge, FIG. 4E
  neutrophil/lymphocyte ratio in the airway: significant decrease
[2]; BAL five days after challenge, FIG. 4F
  neutrophil/macrophage ratio in the airway: significant decrease
[2]; lungs harvested five days after challenge, quantitative microbiological techniques, FIG. 6
  whole lung P. aeruginosa burden: decrease in lung bacterial burden
[2]; lungs harvested five days after challenge, FIG. 5
  whole lung myeloperoxidase levels (neutrophil accumulation in the lung parenchyma): significantly reduced neutrophil accumulation in the lung parenchyma
